{"source": "patent US20250367229A1", "about": "“Treatment of Immune-Related Disorders, Kidney Disorders, Liver Disorders, Hemolytic Disorders, and Oxidative Stress-Associated Disorders Using NRH, NARH and Reduced Derivatives Thereof” (MitoPower LLC, priority 2021, published 2025)", "key": {"CD8^+ T cells [1]": {"system": "CD8^+ T cells", "experiment": "Mitochondrial membrane depolarization (JC-1, flow cytometry) in CD8+ T cells", "type": "cell-based, human", "details": "250 μM, 24 hr, unstimulated or stimulated with anti-CD3 and anti-CD28 antibodies", "experimental": "(§1) PBMCs (10^6 cells per test group) obtained from healthy human adult donors were unstimulated or stimulated with anti-CD3 and anti-CD28 antibodies to induce T-cell activation, in the absence or presence of 250 μM of NRH or NRH-triacetate (NRHTA). Measurements were made at 5, 15 and 24 hr after treatment.\n(§2) After the indicated time of incubation, the PBMCs were stained with anti-CD3, anti-CD4 and anti-CD8 antibodies (Biolegend), JC-1 (1 μM, Thermo Fisher) and annexin V (Thermo Fisher) prior to analysis by flow cytometry. Annexin V binds to cell-surface phosphatidylserine, which is a marker for different forms of cell death including apoptosis and necrosis. The stained cells were re-suspended in phosphate-buffered saline (PBS) and acquired in a Cytek Aurora flow cytometer using a FlowJo software (v10) for analysis. About 200,000-300,000 cells were acquired in the flow cytometer for analysis. Standard procedures for spectral compensation were performed to obtain cell populations. Lymphocytes identified by forward and side scatter were gated to obtain CD3^+/CD4^+ and CD3^+/CD8^+ T-cell populations. Those T-cell populations were gated to identify the red and green signals for JC-1 aggregate and monomer, respectively, and annexin V. The percentage of cells staining green by JC-1 monomer was used to determine the percentage of cells with depolarized mitochondria. […]"}, "HEK293 cells": {"system": "HEK293 cells", "experiment": "NADH/NAD+ ratio in H2O2-exposed HEK293 cells (NAD/NADH-Glo)", "type": "cell-based", "details": "NRH at 100 and 1000 μM, NR at all tested concentrations (0.01-1000 μM)", "experimental": "HEK293 cells were trypsinized and plated at a density of 60,000 cells per well. The cells were then treated with H2O2 (600 μM prepared with Dulbecco's Modified Eagle Medium [DMEM]) for 30 min. The media was then replaced with serum media (DMEM supplemented with 10% fetal bovine serum [FBS]) containing NRH or NR, and were incubated at 37° C. under 6% CO2 for 30 min or 6 hr. The cells were incubated with the following concentrations of NRH or NR: 0.01, 0.1, 1.0, 10, 100 and 1000 μM. NAD^+ and NADH levels at 30 min and 6 hr were estimated using the NAD/NADH-Glo Promega Bioluminescent assay. The results were expressed as fold change relative to the values obtained with untreated cells."}, "[2]": {"experiment": "Distribution of intraperitoneally injected NRH to whole blood, kidney and liver (LCMS/MS)", "type": "in vivo, Wistar Han rat", "details": "single intraperitoneal injection, 500 mg/kg, after 4 hr", "experimental": "Freshly weighed NRH (100 mg) was dissolved in 500 μL sterile IP water. The NRH solution was intraperitoneally injected into a healthy, male Wistar Han rat (200 g) at a single dose of 500 mg/kg. 500 μL of sterile IP water was intraperitoneally injected into another healthy, male Wistar Han rat (200 g) as a control.\nThe animals were euthanized by cervical dislocation under anesthesia after 4 hr. Whole blood was collected in K2EDTA vacutainer tubes by cardiac puncture using a 2 mL syringe. The liver and kidney were harvested subsequently by dissection. The tissues were placed in a petridish, rinsed with ice-cold saline, and then weighed. 72 mg of liver of the treated animal and 74.3 mg of liver of the untreated animal were homogenized, and 71.6 mg of kidney of the treated animal and 70.7 mg of kidney of the untreated animal were homogenized. Homogenization of the tissues was carried out separately in 3 mL of ice-cold methanol (about 20 mg/mL of tissue in methanol). The homogenate was snap-frozen in liquid nitrogen and maintained at −80° C. for analysis. The blood samples were maintained at 2-8° C. for analysis.\n250 μL of whole blood from the K2EDTA tubes was added to a tube containing 50 μL of 500 ng/ml of tolbutamide as the internal standard. 600 μL of ice-cold HPLC-grade methanol was added to this mixture for extraction of nicotinamide adenine dinucleotide (NAD^+) and NRH. The resulting mixture was mixed well and centrifuged at 12500 rpm for 10 min. The supernatant was measured for NAD^+ and NRH by LCMS/MS. For the liver and kidney tissues, 250 μL of the tissue homogenate was processed in the same manner."}, "CD8^+ T cells [3]": {"system": "CD8^+ T cells", "experiment": "Cell death including apoptosis (annexin V, flow cytometry) of CD8+ T cells with depolarized mitochondria", "type": "cell-based, human", "details": "250 μM, 24 hr, unstimulated or stimulated with anti-CD3 and anti-CD28 antibodies", "experimental": "as §1, §2"}, "CD4^+ T cells": {"system": "CD4^+ T cells", "experiment": "Mitochondrial membrane depolarization (JC-1, flow cytometry) in CD4+ T cells", "type": "cell-based, human", "details": "250 μM, 24 hr, unstimulated or stimulated with anti-CD3 and anti-CD28 antibodies", "experimental": "as §1, §2"}, "RBC hemoglobin": {"system": "RBC hemoglobin", "experiment": "H2O2-induced oxidative changes of RBC hemoglobin in vitro (spectral scans)", "type": "cell-based, human", "experimental": "A 4 M stock solution of sodium azide was prepared. One mL of the 4 M stock azide solution was diluted with 9 mL of phosphate-buffered saline (PBS, pH 7.4) to obtain a 0.4 M stock solution, which was further diluted with PBS to obtain a 0.01 M working solution of sodium azide. Eight mL of whole blood was collected in buffered acid citrate dextrose tubes from a healthy human donor. PBS was added to 500 μL of whole blood. The samples were centrifuged, and then the supernatant from each tube was discarded to obtain a red blood cell (RBC) pellet. Ten μL of 0.01 M sodium azide working solution was added to 20 μL of RBC suspension. Twenty μL of hydrogen peroxide (H2O2) diluted in PBS was added to the RBC suspension to obtain final concentrations of H2O2 ranging from 0.01 mM to 100 mM. The samples were incubated at 37° C. for 1.5 hr. 950 μL of de-ionized water was added to the samples, which were then incubated for 10 min to lyse the RBCs and obtain hemoglobin upon centrifugation at 1,500 g. Spectral scans of the lysed samples between 200 nm and 1100 nm were obtained in 2 nm increments, using a Systronics® dual-beam UV-spectrophotometer and de-ionized water as a blank. Samples incubated with PBS at 37° C. for 1-1.5 hr were used as controls to establish the oxidative effects of H2O2 on RBC hemoglobin. Absorbance at 576 nm is a measure of hemoglobin concentration in a sample, and oxidation of hemoglobin to methemoglobin results in a drop in absorbance at 576 nm and an increase in absorbance at 630 nm. Fantao et al., Anal. Biochem., 521:11-19, (2017). Stock solutions of NRH (29.6 mM) and NR (18.3 mM) were prepared in 0.9% normal saline. Appropriate quantities of the stock NRH or NR solution and PBS were added to 500 μL of whole blood to obtain final concentrations of NRH or NR ranging from 1 μM to 1000 μM. The whole blood samples with NRH or NR were mixed gently and incubated at 37° C. for 1-1.5 hr. The samples were centrifuged, and then the supernatant was discarded to obtain an RBC pellet for each sample."}}, "data": [{"smiles": "NC(=O)C1=CN([C@@H]2O[C@H](CO)[C@@H](O)[C@H]2O)C=CC1", "note": "[NRH, N-(β-D-ribofuranosyl)dihydronicotinamide]", "values": [{"measurement": "mitochondrial membrane depolarization in CD8+ T cells", "setting": "CD8^+ T cells [1]", "result": "significantly induced"}, {"measurement": "NADH/NAD+ ratio in HEK293 cells exposed to H2O2", "setting": "HEK293 cells; 30 min of incubation", "result": "significantly increased"}, {"measurement": "NADH/NAD+ ratio in HEK293 cells exposed to H2O2", "setting": "HEK293 cells; 6 hr of incubation", "result": "significantly increased"}, {"measurement": "concentration of NRH in the kidney (area ratio NRH/IS) versus vehicle", "setting": "[2]", "result": "increased concentrations"}, {"measurement": "concentration of NRH in the liver (area ratio NRH/IS) versus vehicle", "setting": "[2]", "result": "increased concentrations"}, {"measurement": "concentration of NRH in whole blood (area ratio NRH/IS) versus vehicle", "setting": "[2]", "result": "increased concentrations"}, {"measurement": "cell death including apoptosis of CD8+ T cells with depolarized mitochondria", "setting": "CD8^+ T cells [3]", "result": "reduced cell death"}, {"measurement": "mitochondrial membrane depolarization in CD4+ T cells", "setting": "CD4^+ T cells", "result": "significantly induced"}, {"measurement": "A576/A630 ratio (a measure of the hemoglobin/methemoglobin ratio)", "setting": "RBC hemoglobin; RBCs exposed to 1 mM H2O2, 1 μM or 100 μM NRH, NR data not shown", "result": "restored"}, {"measurement": "protection of hemoglobin from 1 mM H2O2-induced oxidative changes (amplitude of absorbance peaks at 576, 540, 434, 348 and 270 nm)", "setting": "RBC hemoglobin; pre-incubation of RBCs with 1, 10 and 100 µM", "result": "protected hemoglobin"}]}]}
